Experimental data taken from PubChem BioAssay (NCI).
Several values for one entry are separate records, joined by “and”; a condition that tells them apart may be missing. Equal values may be shown once.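 Step 1: Grow cells in 96-well plates. Step 2: Expose to compound for 48 hours at 5 concentrations. Step 3: Interpolate endpoints linearly; if unreached, use highest concentration. GI50 is the concentration that inhibits growth by half. At the TGI there is no net growth.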

Tests used:
Test in all cases: NCI anticancer screen, dose series, 48 h
[1] = test system: SNB-78 CNS
[2] = test system: HOP-18 NSCLC
[3] = test system: KM20L2 colon
[4] = test system: LXFL 529 NSCLC
[5] = test system: XF 498 CNS
[6] = test system: M19-MEL melanoma
[7] = test system: DMS 273 small cell lung
[8] = test system: MDA-N
[9] = test system: RXF-631 renal
[10] = test system: SN12K1 renal

## CN(C)c1ccc(/C=N\N2C(=O)c3ccccc3C2=O)cc1
[1]
  TGI: > 100 µM
[2]
  TGI: > 100 µM
[3]
  TGI: > 100 µM
[4]
  TGI: > 100 µM
[5]
  TGI: > 100 µM
[6]
  TGI: > 100 µM
[7]
  TGI: > 100 µM

## CN(C)c1n/c(=N/c2ncn[nH]2)ss1
[1]
  TGI: > 100 µM
[2]
  TGI: > 100 µM
[3]
  TGI: > 100 µM
[4]
  TGI: > 100 µM
[5]
  TGI: > 100 µM
[6]
  TGI: > 100 µM
[7]
  TGI: > 100 µM

## COC1=Nc2ccccc2S(=O)(=O)C=C1
[8]
  TGI: 20.8 µM

## CNC1C(O)C(OC2C(N)CC(N)C(OC3OC(C(C)O)C(O)C(O)C3N)C2O)OCC1(C)O (configuration not stated)
[8]
  TGI: > 100 µM

## O=C(NNC(=O)c1cc(/C=C/c2cccc([N+](=O)[O-])c2)[nH]c(=S)n1)Nc1ccc(Cl)cc1
[1]
  TGI: > 100 µM
[2]
  TGI: > 100 µM
[3]
  TGI: > 100 µM
[4]
  TGI: > 100 µM
[5]
  TGI: 81.4 µM
[6]
  TGI: > 100 µM
[7]
  TGI: > 100 µM

## COC(OC)[C@@H](C)[C@H](O)[C@](C)(O)C1OC(C)(C)OC(C(C)C=C(C)C)C1C (some centres not stated)
[1]
  TGI: > 100 µM
[2]
  TGI: > 100 µM
[3]
  TGI: > 100 µM
[4]
  TGI: > 100 µM
[5]
  TGI: > 100 µM
[6]
  TGI: > 100 µM
[7]
  TGI: > 100 µM

## CCCCCC/C=C\CCCCCCCCCC1=CC(=O)C=C(OC)C1=O
[8]
  TGI: 21.8 µM

## O=C(NO)C(=O)Nc1ccc(Cl)cc1[N+](=O)[O-]
[1]
  TGI: > 100 µM
[2]
  TGI: > 100 µM
[3]
  TGI: > 100 µM
[4]
  TGI: > 100 µM
[9]
  TGI: > 100 µM
[6]
  TGI: > 100 µM
[7]
  TGI: > 100 µM

## Cn1c(=S)c2[nH]c(SCCN3CCCC3)nc2n(C)c1=O
[8]
  TGI: > 100 µM

## O=C(NCCCCCCCCNC(=O)c1cccc2ccccc12)c1cccc2ccccc12
[1]
  TGI: 48.3 µM
[2]
  TGI: > 81.4 µM
[3]
  TGI: > 100 µM
[8]
  TGI: > 100 µM
[4]
  TGI: > 100 µM
[5]
  TGI: 20.9 µM
[9]
  TGI: > 82 µM
[6]
  TGI: > 100 µM
[7]
  TGI: > 100 µM

## CCCCCCCCCCCCN(O)C(=O)c1ccccc1
[2]
  TGI: > 100 µM
[3]
  TGI: > 100 µM
[4]
  TGI: > 100 µM
[5]
  TGI: > 100 µM
[6]
  TGI: > 100 µM

## O=[N+]([O-])c1ccc(Sc2c3ccccc3nc3ccccc23)nc1
[8]
  TGI: 17.6 µM

## O=C1c2c(O)cc(O)cc2OC(c2ccc(O)cc2O)C1O (configuration not stated)
[8]
  TGI: > 100 µM

## CCOC(=O)NC(=O)c1cn(CCN2CCN(C(=O)CCCCCCCCCCNc3ncnc4nc[nH]c34)CC2)c(=O)[nH]c1=O
[1]
  TGI: > 100 µM
[2]
  TGI: > 100 µM
[3]
  TGI: > 100 µM
[4]
  TGI: > 100 µM
[6]
  TGI: > 100 µM
[7]
  TGI: > 100 µM

## COc1ccc(/C(=N/NC(N)=O)C(c2ccc(OC)cc2)C2C(=O)Oc3ccccc32)cc1 (configuration not stated)
[1]
  TGI: > 100 µM
[3]
  TGI: > 100 µM
[4]
  TGI: > 100 µM
[5]
  TGI: > 100 µM
[9]
  TGI: > 100 µM
[6]
  TGI: > 100 µM
[7]
  TGI: > 100 µM

## Cc1cc(C)c(S(=O)(=O)ONC(=O)OC(C)(C)C)c(C)c1
[1]
  TGI: > 100 µM
[4]
  TGI: > 100 µM
[5]
  TGI: > 100 µM
[9]
  TGI: > 100 µM
[6]
  TGI: > 100 µM
[7]
  TGI: > 100 µM

## CCc1nc(Cl)nc(Cl)c1Cl
[8]
  TGI: 15.2 µM

## O=C1/C(=C/c2ccccc2)CN(C(=O)OCc2ccccc2)C/C1=C\c1ccccc1
[1]
  TGI: 25.4 µM
[3]
  TGI: 18.9 µM
[8]
  TGI: 13.1 µM
[5]
  TGI: > 31.6 µM
[9]
  TGI: > 31.6 µM
[6]
  GI50: 2010 nM
  TGI: 7 µM and 13.6 µM
[7]
  GI50: 2620 nM
  TGI: 14.3 µM

## COc1cc(-c2cc(=O)c3cc(C)c(C)c(C(=O)O)c3o2)cc(OC)c1OC
[1]
  TGI: > 100 µM
[3]
  TGI: > 100 µM
[4]
  TGI: > 100 µM
[5]
  TGI: > 100 µM
[9]
  TGI: > 100 µM
[6]
  TGI: > 100 µM
[7]
  TGI: > 100 µM

## O=C(O)Cn1c(=O)[nH]c(=O)c2c1ncn2Cc1ccccc1
[1]
  TGI: > 100 µM
[3]
  TGI: > 100 µM
[4]
  TGI: > 100 µM
[5]
  TGI: > 100 µM
[9]
  TGI: > 100 µM
[6]
  TGI: > 100 µM
[7]
  TGI: > 100 µM

## Cc1ccc(C)c(NC(=O)CCc2nc(=S)[nH][nH]2)c1
[1]
  TGI: > 100 µM
[2]
  TGI: > 100 µM
[3]
  TGI: > 100 µM
[4]
  TGI: > 100 µM
[5]
  TGI: > 100 µM
[9]
  TGI: > 100 µM
[6]
  TGI: > 100 µM
[7]
  TGI: > 100 µM

## O=C(CC(=O)C1CCOC1=O)C(=O)Nc1ccc(Cl)cc1Cl (configuration not stated)
[1]
  TGI: > 100 µM
[3]
  TGI: > 100 µM
[4]
  TGI: > 100 µM
[5]
  TGI: > 100 µM
[6]
  TGI: > 100 µM
[7]
  TGI: > 100 µM

## CCC(C(=O)[O-])C(=O)[O-].CCC(C(=O)[O-])C(=O)[O-].N.N.NCCCCCCN.[Pt+4].[Pt+4]
[1]
  GI50: 10.7 µM
  TGI: 29 µM
[2]
  GI50: 4.92 µM
  TGI: 11.5 µM
[3]
  GI50: 15 µM
  TGI: 29 µM
[4]
  GI50: 2370 nM
  TGI: 5.12 µM
[7]
  GI50: 8320 nM
  TGI: 16.4 µM

## NC(=O)/C=C/NC(=O)/C=N\O
[8]
  TGI: > 100 µM

## COc1ccc(CNc2nc3c(NC(C)=O)cc(C(F)(F)F)cc3nc2-c2ccccc2)cc1OC
[1]
  TGI: > 100 µM
[3]
  TGI: > 100 µM
[4]
  TGI: > 100 µM
[5]
  TGI: > 100 µM
[6]
  TGI: > 100 µM
[7]
  TGI: > 100 µM

## COC(=O)C(Cc1nc2ccc(Cl)cc2[nH]c1=O)/C(=N/NC(N)=O)C(=O)Nc1ccc(Cl)cc1 (configuration not stated)
[1]
  TGI: > 100 µM
[2]
  TGI: > 100 µM
[3]
  TGI: > 100 µM
[4]
  TGI: > 100 µM
[5]
  TGI: > 100 µM
[9]
  TGI: > 100 µM
[6]
  TGI: > 100 µM
[7]
  TGI: > 100 µM

## O=C1C2c3[nH]c4ccccc4c3[C@@H]3CCCCC3C2C(=O)N1c1ccccc1 (some centres not stated)
[1]
  TGI: 72 µM
[4]
  TGI: 39.6 µM
[9]
  TGI: 34.2 µM
[6]
  TGI: 34.8 µM
[7]
  TGI: 35.3 µM

## Cc1ccc2[nH]c3c(ncc4[nH]c5ccccc5c43)c2c1
[1]
  TGI: 32.6 µM
[2]
  TGI: 28.1 µM
[3]
  TGI: 31.8 µM
[4]
  TGI: 33.3 µM
[5]
  TGI: 35.8 µM

## CSc1ccc(/C=C/c2ccnc3ccccc23)cc1
[8]
  TGI: 27 µM

## OC(c1ccccn1)C1CNc2ccccc21 (configuration not stated)
[1]
  TGI: > 100 µM
[3]
  TGI: > 100 µM
[4]
  TGI: > 100 µM
[5]
  TGI: > 100 µM
[6]
  TGI: > 100 µM
[7]
  TGI: > 100 µM

## N#CC1(C=O)c2ccccc2C=CN1C(=O)c1ccccc1 (configuration not stated)
[1]
  TGI: > 100 µM
[2]
  TGI: > 100 µM
[3]
  TGI: > 100 µM
[4]
  TGI: > 100 µM
[5]
  TGI: 69.6 µM
[9]
  TGI: > 100 µM
[6]
  TGI: > 100 µM
[7]
  TGI: > 100 µM

## COC12CC(=O)C(C(C)=O)=C(O)C1(C)c1c(OC(C)=O)c(C)c(O)c(C(C)=O)c1O2 (configuration not stated)
[1]
  TGI: > 100 µM
[2]
  TGI: 51.9 µM
[3]
  TGI: > 100 µM
[4]
  TGI: > 100 µM
[5]
  TGI: 70.7 µM
[9]
  TGI: > 100 µM
[6]
  TGI: > 100 µM

## Nc1nc(N)c2nc(CNc3ccc(C(=O)NC(CCCNC(=O)c4ccccc4C(=O)O)C(=O)O)cc3)cnc2n1 (configuration not stated)
[1]
  TGI: > 100 µM
[2]
  GI50: 24.8 µM and 98 µM
  TGI: > 100 µM
[10]
  TGI: > 100 µM
[3]
  TGI: > 100 µM
[8]
  GI50: 0.00127 µM
  TGI: > 100 µM
[4]
  TGI: > 100 µM
[5]
  TGI: > 100 µM
[6]
  GI50: 122 nM
  TGI: > 100 µM
[7]
  TGI: > 100 µM

## CCc1nc(N)nc(N)c1-c1ccc(NCCc2ccccc2)c([N+](=O)[O-])c1
[8]
  TGI: > 57.5 µM

## CCC[CH2][Sn]([CH2]CCC)([O]C(=O)C1CCC(=O)N1)[O]C(=O)C1CCC(=O)N1 (configuration not stated)
[1]
  GI50: 0.26 µM
  TGI: 0.759 µM
[3]
  GI50: 0.446 µM
  TGI: 1.69 µM
[4]
  GI50: 49.8 nM
  TGI: 0.188 µM
[5]
  GI50: 217 nM
  TGI: 0.376 µM
[9]
  GI50: 159 nM
  TGI: 0.297 µM
[6]
  GI50: 244 nM
  TGI: 0.824 µM
[7]
  GI50: 336 nM
  TGI: 1.16 µM

## c1ccc(COCC2OC3c4ccccc4COC3C2OCc2ccccc2)cc1 (configuration not stated)
[1]
  TGI: > 100 µM
[2]
  TGI: > 100 µM
[3]
  TGI: > 100 µM
[9]
  TGI: > 100 µM
[6]
  TGI: > 100 µM
[7]
  TGI: > 100 µM

## Cn1c2c(c3ccccc31)CCN(CCCCN1CCN(c3cccc(Cl)c3)CC1)C2=O
[1]
  TGI: 27.8 µM
[2]
  TGI: > 100 µM
[3]
  TGI: 15.5 µM
[4]
  TGI: 23.7 µM
[5]
  TGI: 28 µM
[6]
  TGI: 25.5 µM
[7]
  TGI: 22.9 µM

## COc1ccc(-c2cc(=O)c3c(O)cc(C)cc3o2)cc1OC
[8]
  TGI: > 100 µM

## C[C@H]1C(Oc2ccc(O)cc2)OC2OC3(C)CCC4[C@H](C)CCC1C24OO3 (some centres not stated)
[8]
  GI50: 11.1 µM
  TGI: 26.4 µM
